Read-outs that look alike come from different tables or passages of the source.
How the values were obtained:
HepG2-A16-CD81EGFP cells = conditions: average of 2 wells; for HepG2 1uM growth rep1 / HepG2 1uM growth rep2: HepG2, 1 µM compound treatment (10 mM stocks); for HepG2 1uM growth rep1 / HepG2 3uM growth rep1: replicate 1, normalized; for HepG2 1uM growth rep2 / HepG2 3uM growth rep2: replicate 2, normalized; for HepG2 3uM growth rep1 / HepG2 3uM growth rep2: HepG2, 3 µM compound treatment (10 mM stocks)
[1] = test system: P. berghei-ANKA-GFP-LucCON liver stage parasites in HepG2-A16-CD81EGFP cells; test: P. berghei liver stage Pb-Luc assay, Method 1 (UCSD, 1536-well); assay type: cell-based, Plasmodium berghei; conditions: Plasmodium berghei, 48 h, P. berghei liver stage, average of 2 wells on a 1536 well plate; for activity at 1 µM: 1 µM compound treatment (10 mM stocks); for activity at 3 µM: 3 µM compound treatment (10 mM stocks)
[2] = test system: Plasmodium falciparum Dd2 asexual blood stage parasites; test: microbe, parasite or virus in culture; design: species or system Plasmodium falciparum Dd2 in human erythrocytes; single determination (one 11-point concentration-response curve); conditions: Plasmodium falciparum, DD2, Erythrocyte, 72 h; read-out: AC50
[3] = replicate 1, normalized, read-out: PbLuc 1uM growth rep1
[4] = replicate 2, normalized, read-out: PbLuc 1uM growth rep2
[5] = replicate 1, normalized, read-out: PbLuc 3uM growth rep1
[6] = replicate 2, normalized, read-out: PbLuc 3uM growth rep2

| Structure (SMILES) | HepG2 1uM growth rep1 (HepG2-A16-CD81EGFP cells) [%] | HepG2 1uM growth rep2 (HepG2-A16-CD81EGFP cells) [%] | HepG2 3uM growth rep1 (HepG2-A16-CD81EGFP cells) [%] | HepG2 3uM growth rep2 (HepG2-A16-CD81EGFP cells) [%] | activity at 1 µM [1, 3] [%] | activity at 1 µM [1, 4] [%] | activity at 3 µM [1, 5] [%] | activity at 3 µM [1, 6] [%] | AC50 [2] [nM] |
| --- | --- | --- | --- | --- | --- | --- | --- | --- | --- |
| CN(C)Cc1c(O)ccc2oc(Cc3ccccc3)cc12 [MLS000039159-01] | 108 | 93 | 87 | 92 | 98 | 102 | 63 | 108 | 422 |
| Cc1cc(N2CCN(C3CCCC3)CC2)n2c(nc3ccccc32)c1C#N [MLS000039270-01] | 91 | 87 | 89 | 90 | 103 | 109 | 75 | 112 | 1060 |
| Cc1ccc(-c2nn(-c3ccccc3)c3[nH]c(=O)c(CNCc4ccccc4)cc23)cc1 [MLS000067457-01] | 95 | 94 | 91 | 100 | 76 | 56 | 38 | 42 | 422 |
| COc1ccc(OC)c(-n2c(S)nnc2-c2cccc(O)c2)c1 [MLS000089016-01] | 97 | 93 | 90 | 96 | 141 | 98 | 86 | 109 | 4220 |
| Oc1c(Cl)cc(Cl)cc1CN1CCN(Cc2ccccc2)CC1 [MLS000106505-01] | 105 | 94 | 90 | 94 | 108 | 103 | 88 | 103 | 668 |
| O=C(CCl)Nc1ccc(Oc2cnc3ccccc3n2)cc1 [MLS000327546-01] | 90 | 86 | 92 | 90 | 99 | 119 | 104 | 138 | 3350 |
| Cc1ccc(Sc2ccc(NC(=O)CCl)cc2)cc1C [MLS000334846-01] | 92 | 91 | 92 | 96 | 124 | 83 | 88 | 81 | 9440 |
| Clc1ccc2c(N/N=C/c3cccc(Br)c3)ccnc2c1 [MLS000336198-01] | 83 | 80 | 87 | 87 | 63 | 77 | 45 | 62 | 10600 |
| CC1CCN(c2ccc(C(=O)NCc3ccco3)cc2[N+](=O)[O-])CC1 [MLS000389854-01] | 91 | 90 | 88 | 94 | 63 | 57 | 20 | 28 | 6680 |
| CCOC(=O)c1sc2nc3c(SCCC#N)cc(C(=O)c4cc(F)ccc4O)cn3c(=O)c2c1C [MLS000393119-01] | 91 | 92 | 89 | 93 | 107 | 121 | 76 | 92 | 1680 |

From publication PMC7822874, “Chemoprotective antimalarials identified through quantitative high-throughput screening of Plasmodium blood and liver stage parasites” (Scientific Reports, 2021)
